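Cultured in 96-well plates, cells were exposed to test compound for 48 hours across five concentrations. TGI is the concentration that stops growth completely.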

In the first experiment the test system is SR leukemia. Put plainly: NCI-60 cell line screen, 48 h.
For `CSC(=S)N/N=C(\C)c1ccc(S(=O)(=O)N(C)c2ccccc2)cc1`, the TGI was above 100 µM.
For `CCNC(=O)Cc1nc2c(N)ncnc2n1C1OC(CO)C(O)C1O` (stereo not given), the TGI is above 100 µM.
On the same count and under the same terms, the value for `O=C(O)c1ccccc1CC1Cc2ccccc2C1=O` (stereo not given) was above 100 µM; that for `Cc1nc(N)c(N2CCN([N+](=O)[O-])CC2)c(=O)[nH]1` was above 100 µM.
Still for that read-out and setting: the figure for `COC(=O)C1CCC(=O)N1C(c1ccc(OC)cc1)c1ccc2c(c1)OCO2` (stereo not given) is above 100 µM.
Still for that read-out and setting: the value for `Cc1ccc(S(=O)(=O)N/N=C/C2(c3ccccc3)c3ccccc3-c3ccccc32)cc1` was above 100 µM.
Take `N#CC12C(=O)N=C(N)C1(C#N)C(c1ccco1)NC1=C2CCCC1` (stereo not given): the TGI is above 100 µM.
On to `CC(=N/N=C/c1ccccn1)/C(C)=N/N=C(C)/C(C)=N/N=C(C)/C(C)=N/N=C(C)/C(C)=N\N=C\c1ccccn1`, for which the TGI is above 100 µM.
Still for that read-out and setting: the figure for `CC1=NN(c2cccc(Cl)c2)C2(C1=C/C=C/c1ccccc1)C(Cl)C(=O)N2c1nc2ccccc2s1` (stereo not given) is 9.54 µM; for `NS(=O)(=O)c1cc(Cl)c(NC(=S)NC(=O)Nc2ccc(Cl)c(Cl)c2)c(Cl)c1` it is above 100 µM; for `Cc1ccc(-c2[nH]c(=O)n(C3OC(CO)C(O)C(O)C3O)c(=O)c2C#N)cc1` (stereo not given) it is above 100 µM.

A further experiment concerns NCI-H23 lung. Put plainly: NCI-60 cell line screen, 48 h.
`CSC(=S)N/N=C(\C)c1ccc(S(=O)(=O)N(C)c2ccccc2)cc1` had a TGI above 100 µM.
For the compound `CCNC(=O)Cc1nc2c(N)ncnc2n1C1OC(CO)C(O)C1O` (stereo not given), the TGI was above 100 µM.
`O=C(O)c1ccccc1CC1Cc2ccccc2C1=O` (stereo not given) yielded a TGI above 100 µM.
As to `Cc1nc(N)c(N2CCN([N+](=O)[O-])CC2)c(=O)[nH]1`, the TGI was above 100 µM.
`COC(=O)C1CCC(=O)N1C(c1ccc(OC)cc1)c1ccc2c(c1)OCO2` (stereo not given) gave a TGI above 100 µM.
For `Cc1ccc(S(=O)(=O)N/N=C/C2(c3ccccc3)c3ccccc3-c3ccccc32)cc1`, the TGI was determined as 37.1 µM.
On the same count and under the same terms, the value for `N#CC12C(=O)N=C(N)C1(C#N)C(c1ccco1)NC1=C2CCCC1` (stereo not given) was above 100 µM; that for `CC(=N/N=C/c1ccccn1)/C(C)=N/N=C(C)/C(C)=N/N=C(C)/C(C)=N/N=C(C)/C(C)=N\N=C\c1ccccn1` was above 100 µM.
For `CC1=NN(c2cccc(Cl)c2)C2(C1=C/C=C/c1ccccc1)C(Cl)C(=O)N2c1nc2ccccc2s1` (stereo not given), the TGI was above 80.3 µM.
On to `NS(=O)(=O)c1cc(Cl)c(NC(=S)NC(=O)Nc2ccc(Cl)c(Cl)c2)c(Cl)c1`, for which the TGI is above 100 µM.
The same measure, in the same setting: the figure for `Cc1ccc(-c2[nH]c(=O)n(C3OC(CO)C(O)C(O)C3O)c(=O)c2C#N)cc1` (stereo not given) is above 100 µM.

A further experiment relates to HL-60(TB) leukemia. Description: NCI-60 cell line screen, 48 h.
`CSC(=S)N/N=C(\C)c1ccc(S(=O)(=O)N(C)c2ccccc2)cc1` came in with a TGI above 100 µM.
Consider `CCNC(=O)Cc1nc2c(N)ncnc2n1C1OC(CO)C(O)C1O` (stereo not given), for which the TGI was above 100 µM.
For `O=C(O)c1ccccc1CC1Cc2ccccc2C1=O` (stereo not given), the TGI is above 100 µM.
In the case of `Cc1nc(N)c(N2CCN([N+](=O)[O-])CC2)c(=O)[nH]1`, the TGI is above 100 µM.
The compound `COC(=O)C1CCC(=O)N1C(c1ccc(OC)cc1)c1ccc2c(c1)OCO2` (stereo not given) returned a TGI of 91.2 µM.
On the same count and under the same terms, the value for `Cc1ccc(S(=O)(=O)N/N=C/C2(c3ccccc3)c3ccccc3-c3ccccc32)cc1` was above 100 µM.
Consider `N#CC12C(=O)N=C(N)C1(C#N)C(c1ccco1)NC1=C2CCCC1` (stereo not given), for which the TGI is above 100 µM.
`CC(=N/N=C/c1ccccn1)/C(C)=N/N=C(C)/C(C)=N/N=C(C)/C(C)=N/N=C(C)/C(C)=N\N=C\c1ccccn1` came in with a TGI above 100 µM.
On the same count and under the same terms, the figure for `CC1=NN(c2cccc(Cl)c2)C2(C1=C/C=C/c1ccccc1)C(Cl)C(=O)N2c1nc2ccccc2s1` (stereo not given) is above 68.3 µM; for `NS(=O)(=O)c1cc(Cl)c(NC(=S)NC(=O)Nc2ccc(Cl)c(Cl)c2)c(Cl)c1` it is 68.4 µM.
On to `Cc1ccc(-c2[nH]c(=O)n(C3OC(CO)C(O)C(O)C3O)c(=O)c2C#N)cc1` (stereo not given), for which the TGI was above 100 µM.

For the next experiment, the system named is MDA-MB-435. Put plainly: NCI-60 cell line screen, 48 h.
The compound `CSC(=S)N/N=C(\C)c1ccc(S(=O)(=O)N(C)c2ccccc2)cc1` had a TGI above 100 µM.
`CCNC(=O)Cc1nc2c(N)ncnc2n1C1OC(CO)C(O)C1O` (stereo not given) returned a TGI above 100 µM.
Compound `O=C(O)c1ccccc1CC1Cc2ccccc2C1=O` (stereo not given) yielded a TGI above 100 µM.
Compound `Cc1nc(N)c(N2CCN([N+](=O)[O-])CC2)c(=O)[nH]1` came in with a TGI above 100 µM.
Turning to `COC(=O)C1CCC(=O)N1C(c1ccc(OC)cc1)c1ccc2c(c1)OCO2` (stereo not given), the TGI was found to be 28.7 µM.
The compound `Cc1ccc(S(=O)(=O)N/N=C/C2(c3ccccc3)c3ccccc3-c3ccccc32)cc1` came in with a TGI of 24.4 µM.
As to `N#CC12C(=O)N=C(N)C1(C#N)C(c1ccco1)NC1=C2CCCC1` (stereo not given), the TGI is above 100 µM.
Still for that read-out and setting: the value for `CC(=N/N=C/c1ccccn1)/C(C)=N/N=C(C)/C(C)=N/N=C(C)/C(C)=N/N=C(C)/C(C)=N\N=C\c1ccccn1` was above 100 µM; that for `CC1=NN(c2cccc(Cl)c2)C2(C1=C/C=C/c1ccccc1)C(Cl)C(=O)N2c1nc2ccccc2s1` (stereo not given) was above 58.4 µM; that for `NS(=O)(=O)c1cc(Cl)c(NC(=S)NC(=O)Nc2ccc(Cl)c(Cl)c2)c(Cl)c1` was above 100 µM.
`Cc1ccc(-c2[nH]c(=O)n(C3OC(CO)C(O)C(O)C3O)c(=O)c2C#N)cc1` (stereo not given) had a TGI above 100 µM.

In a further experiment the test system is NCI-H226 lung. Description: NCI-60 cell line screen, 48 h.
`CSC(=S)N/N=C(\C)c1ccc(S(=O)(=O)N(C)c2ccccc2)cc1` came in with a TGI above 100 µM.
`CCNC(=O)Cc1nc2c(N)ncnc2n1C1OC(CO)C(O)C1O` (stereo not given) showed a TGI above 100 µM.
For the compound `O=C(O)c1ccccc1CC1Cc2ccccc2C1=O` (stereo not given), the TGI is above 100 µM.
Take `Cc1nc(N)c(N2CCN([N+](=O)[O-])CC2)c(=O)[nH]1`: the TGI is above 100 µM.
`COC(=O)C1CCC(=O)N1C(c1ccc(OC)cc1)c1ccc2c(c1)OCO2` (stereo not given) showed a TGI above 100 µM.
Take `Cc1ccc(S(=O)(=O)N/N=C/C2(c3ccccc3)c3ccccc3-c3ccccc32)cc1`: the TGI came to 34.1 µM.
Consider `N#CC12C(=O)N=C(N)C1(C#N)C(c1ccco1)NC1=C2CCCC1` (stereo not given), for which the TGI is above 100 µM.
Compound `CC(=N/N=C/c1ccccn1)/C(C)=N/N=C(C)/C(C)=N/N=C(C)/C(C)=N/N=C(C)/C(C)=N\N=C\c1ccccn1` registered a TGI above 100 µM.
With `CC1=NN(c2cccc(Cl)c2)C2(C1=C/C=C/c1ccccc1)C(Cl)C(=O)N2c1nc2ccccc2s1` (stereo not given), the TGI was above 100 µM.
In turn, `NS(=O)(=O)c1cc(Cl)c(NC(=S)NC(=O)Nc2ccc(Cl)c(Cl)c2)c(Cl)c1` showed a TGI above 100 µM.
`Cc1ccc(-c2[nH]c(=O)n(C3OC(CO)C(O)C(O)C3O)c(=O)c2C#N)cc1` (stereo not given) displayed a TGI above 100 µM.

Source of the values: PubChem BioAssay (NCI).
